11 compounds from ChEMBL document CHEMBL1201862, “PubChem BioAssay data set” (2004) can be followed below.

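Dose response: 5 concentrations. Exposure: 48 h. Format: 96-well plates. Endpoint: linear interpolation; highest concentration if not reached. GI50 is the concentration that inhibits growth by half.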 Activity calls are given as the source filed them. Rule as the data show it: active = GI50 up to about 1.1 µM and inactive = higher.

Some test systems named below: SF-295; A498; HOP-92; UACC-257; SK-MEL-2; HCT-15; OVCAR-3; SW-620; UO-31; K562; OVCAR-4; NCI-H522; MCF7; HCT-116; U-251; RPMI-8226; DU-145; MDA-MB-435; Malme-3M; Hs-578T.
Common to all, as to assay: NCI-60 cell line screen, 48 h

As to `CN1C(=O)c2c(c3c4ccccc4n(C)c3c3c2c2ccccc2n3C)C1=O`, the GI50 in the test on SF-295 is > 100 µM (inactive); in the test on A498, > 100 µM (inactive); with HOP-92 it was > 100 µM (inactive); in the test on UACC-257 it was > 100 µM (inactive); in the test with SK-MEL-2 it was > 100 µM (inactive); in the test on HCT-15, more than 100 µM. The GI50 with OVCAR-3 was 58.6 µM (inactive); in the test with SW-620, > 100 µM (inactive); in the test with UO-31, > 100 µM (inactive); in the test on K562 it was > 100 µM (inactive); in the test with OVCAR-4, > 100 µM (inactive); with NCI-H522 it was > 100 µM (inactive). Besides, the GI50 in the test with MCF7, with HCT-116, in the test with U-251, in the test on RPMI-8226, in the test with DU-145 and in the test on MDA-MB-435 was > 100 µM (inactive) in each case. The GI50 with Malme-3M is > 100 µM (inactive).
As to `COc1cccc(C(=O)O[C@H]2[C@@H]3[C@]4(OC(C)=O)CO[C@@H]4C[C@H](O)[C@@]3(C)C(=O)[C@H](OC(C)=O)C3=C(C)[C@@H](OC(=O)[C@H](O)[C@@H](NC(=O)OC(C)(C)C)c4ccco4)C[C@]2(O)C3(C)C)c1`, the GI50 in the test on SF-295 was < 0.00375 µM (active); in the test with UACC-257, 21.3 µM (inactive); in the test with SK-MEL-2, < 0.00375 µM (active); in the test with HCT-15, less than 0.00375 µM; in the test with OVCAR-3, < 0.00375 µM (active); in the test on SW-620, < 0.00375 µM (active). The GI50 with UO-31 was < 0.00375 µM (active); in the test on K562, < 0.00375 µM (active); with OVCAR-4 it was 6.32 µM (inactive); with NCI-H522, < 0.00375 µM (active); in the test with MCF7, < 0.00375 µM (active); in the test on HCT-116, < 0.00375 µM (active). For the same compound, the GI50 in the test on U-251 is < 0.00375 µM (active); in the test with RPMI-8226 it was < 0.00375 µM (active); in the test with DU-145 it was < 0.00375 µM (active); with MDA-MB-435, < 0.00375 µM (active); in the test on Hs-578T it was < 0.00375 µM (active); in the test on Malme-3M it was 1.47 µM (inactive).
For the compound `COc1cc(O)c2c(c1)OCC(Cc1ccc(O)cc1)C2=O` (stereo not given), the GI50 in the test with SF-295 is 51.1 µM (inactive); with A498, 36.1 µM (inactive); in the test with HOP-92, 37.9 µM (inactive); with UACC-257, > 100 µM (inactive); in the test with SK-MEL-2, > 100 µM (inactive); in the test with HCT-15 it was 94.8 µM. Further, the GI50 with OVCAR-3 was 60.4 µM (inactive); with SW-620 it was > 100 µM (inactive); with UO-31, > 100 µM (inactive); in the test on K562, > 100 µM (inactive); with OVCAR-4, 86.3 µM (inactive); in the test with NCI-H522, > 100 µM (inactive). Moreover, the GI50 was > 100 µM (inactive) in the test on HCT-116; > 100 µM (inactive) with U-251; 65.5 µM (inactive) in the test on RPMI-8226; > 100 µM (inactive) with DU-145; > 100 µM (inactive) in the test on MDA-MB-435; 45.7 µM (inactive) with Hs-578T. The GI50 in the test on Malme-3M was > 100 µM (inactive).
`CC1(C)OC(=O)C(Cc2ccccc2)(Cc2ccccc2)C(=O)O1`: the GI50 is > 100 µM (inactive) in the test with SF-295; > 100 µM (inactive) in the test on UACC-257; > 100 µM (inactive) with SK-MEL-2; more than 100 µM with HCT-15; > 100 µM (inactive) with SW-620; > 100 µM (inactive) in the test on UO-31. Further, the GI50 with K562, with OVCAR-4, in the test on NCI-H522, in the test on MCF7, in the test with HCT-116 and in the test on U-251 was > 100 µM (inactive) each time. Besides, the GI50 with DU-145, in the test on Hs-578T and with Malme-3M was > 100 µM (inactive) throughout.
For the compound `Clc1ccc(Nc2nnc(CCCCCCCCc3nnc(Nc4ccc(Cl)cc4)o3)o2)cc1`, the GI50 with SF-295 was 35.8 µM (inactive); with A498 it was 37.1 µM (inactive); in the test with HOP-92 it was 23.8 µM (inactive); with UACC-257 it was 37.4 µM (inactive); in the test on SK-MEL-2, 50.8 µM (inactive); in the test with HCT-15 it was 32.6 µM. Besides, the GI50 is 48.5 µM (inactive) in the test with SW-620; 36.8 µM (inactive) with UO-31; 7.35 µM (inactive) with K562; 51.6 µM (inactive) with OVCAR-4; 21.5 µM (inactive) in the test with NCI-H522; 39 µM (inactive) in the test on MCF7. The GI50 in the test with HCT-116 was 17.3 µM (inactive); in the test on U-251, 38.3 µM (inactive); with RPMI-8226, 21.6 µM (inactive); with DU-145 it was 25.5 µM (inactive); with MDA-MB-435 it was 42.7 µM (inactive); in the test on Malme-3M it was 11 µM (inactive).
For `CCOC(=O)c1sc2nc(SC)nc(Nc3ccc4c(c3)OCO4)c2c1N`, the GI50 is 16 µM (inactive) with SF-295; 28.4 µM (inactive) in the test with A498; 17.4 µM (inactive) in the test with HOP-92; > 100 µM (inactive) with UACC-257; 68.4 µM (inactive) with SK-MEL-2; 0.706 µM in the test on HCT-15. The GI50 in the test on OVCAR-3 was 37.4 µM (inactive); with SW-620, 4.34 µM (inactive); in the test with UO-31, 71.3 µM (inactive); in the test on K562 it was 81.1 µM (inactive); in the test on OVCAR-4, 37.7 µM (inactive); in the test with NCI-H522, 46.7 µM (inactive). Besides, the GI50 with MCF7 is 30.6 µM (inactive); in the test on HCT-116, > 100 µM (inactive); with U-251, 32.9 µM (inactive); in the test with RPMI-8226, 53.8 µM (inactive); in the test with DU-145 it was 35.8 µM (inactive); with MDA-MB-435, > 100 µM (inactive). The GI50 with Malme-3M is 29.6 µM (inactive).
Take `CCN1/C(=C/C#C/C(C)=C\c2sc3ccccc3[n+]2CC)Sc2ccccc21`: the GI50 is 2.94 µM (inactive) in the test on SF-295; 2 µM (inactive) in the test with HOP-92; 1.32 µM (inactive) in the test on UACC-257; 2.44 µM (inactive) with SK-MEL-2; 3.69 µM in the test on HCT-15; 0.593 µM (active) in the test with SW-620. The GI50 was 2.03 µM (inactive) in the test with UO-31; 0.269 µM (active) with K562; 7.33 µM (inactive) in the test on OVCAR-4; 0.377 µM (active) with NCI-H522; 4.05 µM (inactive) with MCF7; 0.738 µM (active) in the test on HCT-116. Further, the GI50 was 0.948 µM (active) in the test with U-251; 0.222 µM (active) in the test on RPMI-8226; 3.42 µM (inactive) with DU-145; 2.36 µM (inactive) with MDA-MB-435; 2.98 µM (inactive) in the test with Hs-578T; 1.11 µM (active) in the test on Malme-3M.
In the case of `C#CCOCC12C=CC(O1)C1COC(=O)C12` (stereo not given), the GI50 in the test on SF-295 is > 100 µM (inactive); in the test with A498, > 100 µM (inactive); with HOP-92, 7.14 µM (inactive); with UACC-257, > 100 µM (inactive); in the test on HCT-15, more than 100 µM; in the test with OVCAR-3, > 100 µM (inactive). The GI50 with SW-620, in the test on UO-31, with K562, with OVCAR-4, with NCI-H522 and with HCT-116 was > 100 µM (inactive) each time. The GI50 in the test with U-251, in the test on RPMI-8226, in the test with DU-145, in the test on MDA-MB-435, in the test on Hs-578T and in the test on Malme-3M was > 100 µM (inactive) throughout.
For the compound `CN(c1ccccc1Cl)S(=O)(=O)c1ccccc1[N+](=O)[O-]`, the GI50 in the test with SF-295 is 71.4 µM (inactive); in the test on UACC-257 it was 45.1 µM (inactive); with SK-MEL-2, 96.6 µM (inactive); in the test with HCT-15, 48.9 µM; in the test with OVCAR-3, 37.8 µM (inactive); with SW-620, 78.9 µM (inactive). Further, the GI50 was 31.6 µM (inactive) with UO-31; 21.3 µM (inactive) with K562; > 100 µM (inactive) in the test on OVCAR-4; 32.7 µM (inactive) with NCI-H522; > 10 µM (inactive) in the test with MCF7; 33.6 µM (inactive) with HCT-116. The GI50 in the test on U-251 is 40.6 µM (inactive); in the test on RPMI-8226 it was 24.8 µM (inactive); in the test with DU-145, 91.6 µM (inactive); in the test on MDA-MB-435, 28.7 µM (inactive); in the test on Hs-578T it was > 100 µM (inactive); with Malme-3M it was 79.6 µM (inactive).
Turning to `O=c1c(C(c2cnc3ccccc3c2)c2c(O)oc3ccccc3c2=O)c(O)oc2ccccc12`, the GI50 in the test on A498 is 92.5 µM (inactive); in the test on HOP-92 it was 20.2 µM (inactive); in the test on UACC-257, 37.3 µM (inactive); in the test with SK-MEL-2 it was 47.2 µM (inactive); with HCT-15, 44.6 µM; with OVCAR-3, 91.8 µM (inactive). Also, the GI50 in the test on SW-620 is 29.6 µM (inactive); in the test on UO-31, 29.4 µM (inactive); in the test on K562, 35.4 µM (inactive); in the test on OVCAR-4, 33.7 µM (inactive); with NCI-H522, 36.1 µM (inactive); with HCT-116, 30.3 µM (inactive). Further, the GI50 with U-251 is 29 µM (inactive); in the test on RPMI-8226, 29 µM (inactive); with DU-145 it was > 100 µM (inactive); in the test on MDA-MB-435, 36.3 µM (inactive); with Hs-578T, 22.4 µM (inactive); with Malme-3M, 35.2 µM (inactive).
Regarding `Cn1c(=O)c2nc[nH]c2n(C)c1=O` [THEOPHYLLINE], the GI50 in the test on HOP-92 is > 100 µM (inactive); with UACC-257 it was > 100 µM (inactive); in the test with SK-MEL-2, > 100 µM (inactive); with HCT-15 it was more than 100 µM; in the test with OVCAR-3, > 100 µM (inactive); in the test with SW-620, > 100 µM (inactive). Further, the GI50 in the test on UO-31, with K562, with NCI-H522, in the test on MCF7, with HCT-116 and with RPMI-8226 was > 100 µM (inactive) throughout. The GI50 in the test with DU-145, in the test with Hs-578T and in the test on Malme-3M was > 100 µM (inactive) throughout.
